This note sets out measurements from patent US12492181B2, “Gem-disubstituted piperidine melanocortin subtype-2 receptor (MC2R) antagonists and uses thereof” (Crinetics Pharmaceuticals, Inc., priority 2019, dated 2025).

Bounds are passed on as bounds.

T1 sequence (Q01718 whole entry): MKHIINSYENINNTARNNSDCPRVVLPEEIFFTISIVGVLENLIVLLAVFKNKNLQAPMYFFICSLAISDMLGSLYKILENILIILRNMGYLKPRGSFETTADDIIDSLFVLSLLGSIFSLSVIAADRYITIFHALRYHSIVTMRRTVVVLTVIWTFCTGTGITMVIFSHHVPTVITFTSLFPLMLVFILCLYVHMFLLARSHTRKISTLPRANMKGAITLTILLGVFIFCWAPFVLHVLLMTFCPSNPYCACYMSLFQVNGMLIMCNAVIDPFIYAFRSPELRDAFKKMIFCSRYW
T1 sequence (Q8TCY5 whole entry partner): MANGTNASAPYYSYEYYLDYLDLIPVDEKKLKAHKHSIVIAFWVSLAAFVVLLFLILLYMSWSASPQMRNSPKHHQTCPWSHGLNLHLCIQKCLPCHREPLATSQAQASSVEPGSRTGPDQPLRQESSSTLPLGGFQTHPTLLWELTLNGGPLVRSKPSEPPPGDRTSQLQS

This assay concerns the target T1, hMC2 receptor (crude hMC2R membranes from CRE-bla-CHO-K1 cells stably expressing hMC2 receptor and hMRAP accessory protein) (Homo sapiens, UniProt Q01718).
T1 construct: crude membrane fractions
Kind of assay: hMC2 membrane binding assay ([125I]ACTH (1-39) Tyr23, SPA). As to conditions: displacement of 0.2 nM [125I]ACTH (1-39) Tyr23 from hMC2R membranes, 1.5 hours at room temperature; read-out: MC2R binding potency. As for the experimental part:
Crude membrane fractions are prepared from CRE-bla-CHO-K1 cells stably expressing hMC2 receptor and hMRAP accessory protein (Thermo Fisher). The cells are grown to 85-100% confluence on standard tissue culture dishes in GlutaMax DMEM growth media (Gibco) with following additives: 10% dialyzed FBS (Gemini), 0.1 mM NEAA (Gibco), 25 mM HEPES (Gibco), 5 μg/mL blasticidin (Goldbio), 100 μg/mL zeocin (Invitrogen), 600 μg/mL hygromycin (Goldbio). To prepare membranes, cells are scraped and collected in 1× Dulbecco's phosphate buffered saline (Corning) and then pelleted at 1000 RPM's. The cell pellet is reconstituted in membrane preparation buffer (20 mM HEPES, 6 mM MgCl2 and 1 mM EGTA, protease inhibitor tablets (Pierce) adjusted to pH 7.4), homogenized using a dounce homogenizer, and the resulting membrane fraction is pelleted by centrifugation at 12,000 RPM's. The membrane pellet is resuspended in membrane preparation buffer, snap freezed and stored at −80° C. for later use.
Binding Assay for hMC2 Antagonists Protocol:
The hMC2 membrane binding assay utilizes the following components: radiolabel [^125I]ACTH (1-39) Tyr23 (PerkinElmer), wheatgerm agglutinin coated PVT SPA beads (PerkinElmer), crude hMC2R membranes, and compounds. Briefly hMC2R membranes are incubated with SPA beads in binding assay buffer (50 mM HEPES, 5 mM MgCl2, 1 mM CaCl2), 0.20% BSA, protease inhibitor tablets (Pierce) adjusted to pH7.4) prior to assay initiation. […] Assay plates are read using a Top Count NXT and Ki values for compounds are determined using a GraphPad Prism 6 non-linear regression analysis.
As to `CN1CC[C@@H](NC(=O)C2(c3ccc(-c4cccc5ccoc45)nc3)CCN(c3ccc(C(F)(F)F)cc3C#N)CC2)C1` [Compound 1-54, 4-[6-(1-benzofuran-7-yl)pyridin-3-yl]-1-[2-cyano-4-(trifluoromethyl)phenyl]-N-[(3R)-1-methylpyrrolidin-3-yl]piperidine-4-carboxamide], the Ki was in the range of 10 to 100 nM. As to `COc1ccccc1-c1ccc(C2(C(=O)NCCN(C)C)CCN(c3ccc(C(F)(F)F)cc3F)CC2)cn1` [Compound 1-254, N-[2-(dimethylamino)ethyl]-1-[2-fluoro-4-(trifluoromethyl)phenyl]-4-[6-(2-methoxyphenyl)pyridin-3-yl]piperidine-4-carboxamide], the Ki is under 10 nM. For `CN1CC[C@H](NC(=O)C2(c3ccc(-c4cccnc4C4CC4)nc3)CCN(c3ccc(C(F)(F)F)cc3C#N)CC2)C1` [Compound 1-180, 1-[2-cyano-4-(trifluoromethyl)phenyl]-4-{2′-cyclopropyl-[2,3′-bipyridin]-5-yl}-N-[(3S)-1-methylpyrrolidin-3-yl]piperidine-4-carboxamide] the value was under 10 nM. On to `CN1CC[C@H](NC(=O)C2(c3ccc(-c4ccccn4)nc3)CCN(c3ccc(C(F)(F)F)cc3C#N)CC2)C1` [Compound 1-176, 4-{[2,2′-bipyridin]-5-yl}-1-[2-cyano-4-(trifluoromethyl)phenyl]-N-[(3S)-1-methylpyrrolidin-3-yl]piperidine-4-carboxamide], for which the Ki was in the range of 10 to 100 nM. As for `CN1CC[C@@H](NC(=O)C2(c3ccc(-c4cc(F)ccc4F)nc3)CCN(c3ccc(C(F)(F)F)cc3C#N)CC2)C1` [Compound 1-68, 1-[2-cyano-4-(trifluoromethyl)phenyl]-4-[6-(2,5-difluorophenyl)pyridin-3-yl]-N-[(3R)-1-methylpyrrolidin-3-yl]piperidine-4-carboxamide], the Ki was under 10 nM. `Cc1ccccc1-c1ccc(C2(C(=O)N[C@@H]3CCN(C)C3)CCN(c3ccc(C(F)(F)F)cc3C#N)CC2)cn1` [Compound 1-66, 1-[2-cyano-4-(trifluoromethyl)phenyl]-4-[6-(2-methylphenyl)pyridin-3-yl]-N-[(3R)-1-methylpyrrolidin-3-yl]piperidine-4-carboxamide]: the Ki is under 10 nM. For `CN1CC[C@@H](NC(=O)C2(c3ccc(-c4cccc5cnn(C)c45)nc3)CCN(c3ccc(C(F)(F)F)cc3C#N)CC2)C1` [Compound 1-73, 1-[2-cyano-4-(trifluoromethyl)phenyl]-4-[6-(1-methyl-1H-indazol-7-yl)pyridin-3-yl]-N-[(3R)-1-methylpyrrolidin-3-yl]piperidine-4-carboxamide], the Ki is under 10 nM. As to `COc1ncccc1-c1ccc(C2(C(=O)NCCN(C)C)CCN(c3ccc(C(F)(F)F)cc3F)CC2)cn1` [Compound 1-271, N-[2-(dimethylamino)ethyl]-1-[2-fluoro-4-(trifluoromethyl)phenyl]-4-{2′-methoxy-[2,3′-bipyridin]-5-yl}piperidine-4-carboxamide], the Ki was under 10 nM. As to `CCOc1ccccc1-c1ccc(C2(C(=O)NC3CN(C)C3)CCN(c3ccc(Cl)cc3C#N)CC2)cn1` [Compound 1-93, 1-(4-chloro-2-cyanophenyl)-4-[6-(2-ethoxyphenyl)pyridin-3-yl]-N-(1-methylazetidin-3-yl)piperidine-4-carboxamide], the Ki is under 10 nM. On to `CNC[C@H](C)NC(=O)C1(c2cnc(-c3cccn3C)c(F)c2)CCN(c2ccc(C(F)(F)F)cc2C#N)CC1` [Compound 1-326, 1-[2-cyano-4-(trifluoromethyl)phenyl]-4-[5-fluoro-6-(1-methyl-1H-pyrrol-2-yl)pyridin-3-yl]-N-[(2S)-1-(methylamino)propan-2-yl]piperidine-4-carboxamide], for which the Ki is under 10 nM. Turning to `COc1ccccc1-c1ccc(C2(C(=O)NC[C@@H]3COCCN3C)CCN(c3ccc(C(F)(F)F)cc3C#N)CC2)cn1` [Compound 1-329, 1-[2-cyano-4-(trifluoromethyl)phenyl]-4-[6-(2-methoxyphenyl)pyridin-3-yl]-N-{[(3R)-4-methylmorpholin-3-yl]methyl}piperidine-4-carboxamide], the Ki was under 10 nM.

With `CCOc1ncccc1-c1ccc(C2(C(=O)NCCN)CCN(c3ccc(C(F)(F)F)cc3C#N)CC2)cn1` [Compound 1-13, N-(2-aminoethyl)-1-[2-cyano-4-(trifluoromethyl)phenyl]-4-{2′-ethoxy-[2,3′-bipyridin]-5-yl}piperidine-4-carboxamide], the Ki is under 10 nM.

Turning to `CCN(C)CCNC(=O)C1(c2ccc(-c3cccn3C)nc2)CCN(c2ccc(C(F)(F)F)cc2C#N)CC1` [Compound 1-265, 1-[2-cyano-4-(trifluoromethyl)phenyl]-N-{2-[ethyl(methyl)amino]ethyl}-4-[6-(1-methyl-1H-pyrrol-2-yl)pyridin-3-yl]piperidine-4-carboxamide], the Ki was under 10 nM. For `CCOc1ncccc1-c1ncc(C2(C(=O)NCCN(C)C)CCN(c3ccc(C(F)(F)F)cc3F)CC2)cc1F` [Compound 1-284, N-[2-(dimethylamino)ethyl]-4-{2′-ethoxy-3-fluoro-[2,3′-bipyridin]-5-yl}-1-[2-fluoro-4-(trifluoromethyl)phenyl]piperidine-4-carboxamide], the Ki is under 10 nM. As to `CCOc1ncccc1-c1ccc(C2(C(=O)NC[C@@H](C)N)CCN(c3ccc(C(F)(F)F)cc3C#N)CC2)cc1` [Compound 1-4, N-[(2R)-2-aminopropyl]-1-[2-cyano-4-(trifluoromethyl)phenyl]-4-[4-(2-ethoxypyridin-3-yl)phenyl]piperidine-4-carboxamide], the Ki was in the range of 10 to 100 nM. On to `CN(C)CCCNC(=O)C1(c2ccc(-c3cccn3C)nc2)CCN(c2ccc(C(F)(F)F)cc2C#N)CC1` [Compound 1-207, 1-[2-cyano-4-(trifluoromethyl)phenyl]-N-[3-(dimethylamino)propyl]-4-[6-(1-methyl-1H-pyrrol-2-yl)pyridin-3-yl]piperidine-4-carboxamide], for which the Ki is under 10 nM. Under `CN1C[C@H](NC(=O)C2(c3ccc(-c4cccn4C)nc3)CCN(c3ccc(C(F)(F)F)cc3C#N)CC2)[C@@H](O)C1` [Compound 1-270, 1-[2-cyano-4-(trifluoromethyl)phenyl]-N-[(3S,4S)-4-hydroxy-1-methylpyrrolidin-3-yl]-4-[6-(1-methyl-1H-pyrrol-2-yl)pyridin-3-yl]piperidine-4-carboxamide] stands under 10 nM. For the compound `CCOc1ncccc1-c1ccc(C2(NC(=O)C3CN(C)C3)CCN(c3ccc(C(F)(F)F)cc3C#N)CC2)cn1` [Compound 2-32, N-{1-[2-cyano-4-(trifluoromethyl)phenyl]-4-{2′-ethoxy-[2,3′-bipyridin]-5-yl}piperidin-4-yl}-1-methylazetidine-3-carboxamide], the Ki is under 10 nM. Turning to `CCOc1ncccc1-c1ccc(C2(C(=O)N[C@H]3CCN(C)C3)CCN(c3ccc(C(F)(F)F)cc3Cl)CC2)cn1` [Compound 1-141, 1-[2-chloro-4-(trifluoromethyl)phenyl]-4-{2′-ethoxy-[2,3′-bipyridin]-5-yl}-N-[(3S)-1-methylpyrrolidin-3-yl]piperidine-4-carboxamide], the Ki was under 10 nM. Take `COc1ccccc1-c1ccc(C2(C(=O)NC3CN(C)C3)CCN(c3ccc(C(F)(F)F)cc3C#N)CC2)cn1` [Compound 1-94, 1-[2-cyano-4-(trifluoromethyl)phenyl]-4-[6-(2-methoxyphenyl)pyridin-3-yl]-N-(1-methylazetidin-3-yl)piperidine-4-carboxamide]: the Ki was under 10 nM.
